# Earlier results in patent US20090181905A1, “CRYSTALLINE FORM OF 1' -(1-METHYLETHYL)-4' -[(2-FLUORO-4-METHOXYPHENYL)METHYL]-5' -METHYL-1H-PYRAZOL-3' -O-BETA-D-GLUCOPYRANOSIDE, A METHOD FOR ITS PREPARATION AND THE USE THEREOF FOR PREPARING MEDICAMENTS” (BOEHRINGER INGELHEIM INTERNATIONAL GMBH, priority 2006, published 2009).
# System: HbA1c
# Settings: metformin on its own, in the diabetic
compound,measurement,value
CN(C)C(=N)N=C(N)N [metformin],average improvement in the HbA1c value,1.0-1.5%
